{
  "source": "patent US8017612B2",
  "about": "“Piperazine compound and use thereof as a HCV polymerase inhibitor” (priority 2006, dated 2011)",
  "key": {"[1]": {"target": "T1, HCV polymerase (NS5B) type 1b (Hepatitis C virus genotype 1b, UniProt P26663)", "T1 construct": "a region encoding NS5B (J Virol 1991 March, 65(3), 1105-13, 544 amino acids after deletion of 47 amino acids on the C-terminal); 6xHis (C); made in house; host or cells: Escherichia coli", "assay": "Assay of enzyme (HCV polymerase) inhibitory activity, type 1b enzyme", "type": "biochemical, HCV BK strain (type 1b)", "conditions": "HCV polymerase inhibitory activity (IC50), 1b, type 1b enzyme 0.5 μg/ml, 25° C., 60 min", "method_in_brief": "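Polymerase activity was followed as radiolabelled UTP incorporation by E. coli-expressed, His-tagged NS5B of HCV type 1b lacking its last 47 residues. Conditions: 2 μM UTP, 50 μM other NTPs, Mg2+ buffer at pH 7.5, 25 °C for 60 min. Inhibition relative to compound-free reactions gave IC50.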"}, "[2]": {"target": "T2, HCV polymerase (NS5B) type 1a (Hepatitis C virus genotype 1a, UniProt P26664)", "T2 construct": "made in house; host or cells: Escherichia coli (by the 'similar method' of the 1b enzyme)", "assay": "Assay of enzyme (HCV polymerase) inhibitory activity, type 1a enzyme", "type": "biochemical, HCV type 1a (cloned from the blood of patients)", "conditions": "HCV polymerase inhibitory activity (IC50), 1a, type 1a enzyme 1.5 μg/ml, 25° C., 60 min", "method_in_brief": "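IC50 values derive from radioactivity of newly synthesized RNA with versus without test compound. The enzyme was C-terminally truncated type 1a NS5B, 1.5 μg/ml, run 60 min at 25° C with 3H-UTP-labelled nucleotides.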"}},
  "data": [
    {"smiles": "CCC(F)(F)c1ccc(CNC(=O)[C@H]2CN(c3cnc(CO)c(N)n3)CCN2S(=O)(=O)c2ccc(OC(F)(F)F)cc2)cc1", "note": "[Example 604, (R)-6′-amino-5′-hydroxymethyl-4-(4-trifluoromethoxy-benzenesulfonyl)-3,4,5,6-tetrahydro-2H-[1,2′]bipyrazinyl-3-carboxylic acid 4-(1,1-difluoro-propyl)-benzylamide]", "values": [
      {"measurement": "IC50", "setting": "[1]", "result": "< 100", "unit": "nM"},
      {"measurement": "IC50", "setting": "[2]", "result": "100 to 1000", "unit": "nM"}
    ]},
    {"smiles": "CCC(F)(F)c1ccc(CNC(=O)[C@H]2CN(c3cc(N)ncn3)CCN2S(=O)(=O)c2ccc(OC(F)(F)F)cc2)cc1", "note": "[Example 605, (R)-4-(6-amino-pyrimidin-4-yl)-1-(4-trifluoromethoxy-benzenesulfonyl)-piperazine-2-carboxylic acid 4-(1,1-difluoro-propyl)-benzylamide]", "values": [
      {"measurement": "IC50", "setting": "[1]", "result": "< 100", "unit": "nM"},
      {"measurement": "IC50", "setting": "[2]", "result": "< 100", "unit": "nM"}
    ]},
    {"smiles": "COc1nsc(N2CCN(S(=O)(=O)c3ccc(OC(F)(F)F)cc3)[C@@H](C(=O)NCc3ccc(C(C)(C)C)cc3)C2)n1", "note": "[Example 606, (R)-4-(3-methoxy-[1,2,4]thiadiazol-5-yl)-1-(4-trifluoromethoxy-benzenesulfonyl)-piperazine-2-carboxylic acid 4-tert-butyl-benzylamide]", "values": [
      {"measurement": "IC50", "setting": "[1]", "result": "< 100", "unit": "nM"},
      {"measurement": "IC50", "setting": "[2]", "result": "< 100", "unit": "nM"}
    ]},
    {"smiles": "CCC(F)(F)c1ccc(CNC(=O)[C@H]2CN(C(=O)Nc3cncs3)CCN2S(=O)(=O)c2ccc(OC(F)(F)F)cc2)cc1", "note": "[Example 607, (R)-4-(4-trifluoromethoxy-benzenesulfonyl)-piperazine-1,3-dicarboxylic acid 3-[4-(1,1-difluoro-propyl)-benzylamide] 1-thiazol-5-ylamide]", "values": [
      {"measurement": "IC50", "setting": "[1]", "result": "100 to 1000", "unit": "nM"},
      {"measurement": "IC50", "setting": "[2]", "result": "100 to 1000", "unit": "nM"}
    ]},
    {"smiles": "COc1ccc(CNC(=O)[C@H]2CN(C(C)=O)CCN2S(=O)(=O)c2ccc(OC(F)(F)F)cc2)cc1", "note": "[Example 608, (R)-4-acetyl-1-(4-trifluoromethoxy-benzenesulfonyl)-piperazine-2-carboxylic acid 4-methoxy-benzylamide]", "values": [
      {"measurement": "IC50", "setting": "[1]", "result": "100 to 1000", "unit": "nM"},
      {"measurement": "IC50", "setting": "[2]", "result": "100 to 1000", "unit": "nM"}
    ]},
    {"smiles": "CCC(F)(F)c1ccc(CNC(=O)[C@H]2CN(C(=O)C(C)C)CCN2S(=O)(=O)c2ccc(OC(F)(F)F)cc2)cc1", "note": "[Example 609, (R)-4-isobutyryl-1-(4-trifluoromethoxy-benzenesulfonyl)-piperazine-2-carboxylic acid 4-(1,1-difluoro-propyl)-benzylamide]", "values": [
      {"measurement": "IC50", "setting": "[1]", "result": "100 to 1000", "unit": "nM"},
      {"measurement": "IC50", "setting": "[2]", "result": "> 1000", "unit": "nM"}
    ]},
    {"smiles": "CCC(F)(F)c1ccc(CNC(=O)[C@H]2CN(C(=O)C3CC3)CCN2S(=O)(=O)c2ccc(OC(F)(F)F)cc2)cc1", "note": "[Example 610, (R)-4-cyclopropanecarbonyl-1-(4-trifluoromethoxy-benzenesulfonyl)-piperazine-2-carboxylic acid 4-(1,1-difluoro-propyl)-benzylamide]", "values": [
      {"measurement": "IC50", "setting": "[1]", "result": "100 to 1000", "unit": "nM"},
      {"measurement": "IC50", "setting": "[2]", "result": "100 to 1000", "unit": "nM"}
    ]},
    {"smiles": "CCC(F)(F)c1ccc(CNC(=O)[C@H]2CN(C(=O)C(C)(C)C)CCN2S(=O)(=O)c2ccc(OC(F)(F)F)cc2)cc1", "note": "[Example 611, (R)-4-(2,2-dimethyl-propionyl)-1-(4-trifluoromethoxy-benzenesulfonyl)-piperazine-2-carboxylic acid 4-(1,1-difluoro-propyl)-benzylamide]", "values": [
      {"measurement": "IC50", "setting": "[1]", "result": "> 1000", "unit": "nM"},
      {"measurement": "IC50", "setting": "[2]", "result": "> 1000", "unit": "nM"}
    ]},
    {"smiles": "CCC(F)(F)c1ccc(CNC(=O)[C@H]2CN(C(=O)Nc3nc(C(C)(C)O)cs3)CCN2S(=O)(=O)c2ccc(OC(F)(F)F)cc2)cc1", "note": "[Example 612, (R)-4-(4-trifluoromethoxy-benzenesulfonyl)-piperazine-1,3-dicarboxylic acid 3-[4-(1,1-difluoro-propyl)-benzylamide] 1-{[4-(1-hydroxy-1-methyl-ethyl)-thiazol-2-yl]-amide}]", "values": [
      {"measurement": "IC50", "setting": "[1]", "result": "100 to 1000", "unit": "nM"},
      {"measurement": "IC50", "setting": "[2]", "result": "> 1000", "unit": "nM"}
    ]},
    {"smiles": "CC(=O)N1CCN(S(=O)(=O)c2ccc(OC(F)(F)F)cc2)[C@@H](C(=O)NCc2ccc(O)cc2)C1", "note": "[Example 613, (R)-4-acetyl-1-(4-trifluoromethoxy-benzenesulfonyl)-piperazine-2-carboxylic acid 4-hydroxy-benzylamide]", "values": [
      {"measurement": "IC50", "setting": "[1]", "result": "> 1000", "unit": "nM"},
      {"measurement": "IC50", "setting": "[2]", "result": "> 1000", "unit": "nM"}
    ]}
  ]
}
